Experimental data: patent US20260250320A1, “LIPIDATED PEPTIDE INHIBITORS OF INTERLEUKIN-23 RECEPTOR” (Janssen Pharmaceutica NV, priority 2023, published 2026)
*1 amine or outer side, *2 acyl side, *3 side chain or, on linkers, in order; H or OH if unused. Where a SMILES comes first, the peptide text is derived from it. Bridges are numbered along the chain shown (N, C = ends). Side-chain parts run from the residue outwards. [ ]: non-standard residue; d: D form. The star is where a group is joined. ξ: configuration not given here. X36 = C[N+](C)(C)CCOCCOCCC(=O)C[C@H](CCCCCC(=O)COCCOCCNC(=O)COCCOCCNC(=O)CC[C@H](NC(=O)CCCCCCCCCCCCCCCCC(=O)O)C(=O)O)C(=O)*; Me3N+(CH2)2O(CH2)2O(CH2)2CO = C[N+](C)(C)CCOCCOCCC(=O)*; X24 = O=C(O)CCCCCCCCCCCCCCCCCN[C@@H](CCC(=O)*)C(=O)O; CH2CH2OCH2CH2OCH2CH2NMe3+ = C[N+](C)(C)CCOCCOCC*; Trp(7-Me) = Cc1cccc2c(C[C@H](N)C(=O)O)c[nH]c12; Abu(4-yl) = O=C([C@H](CC[*:3])N[*:1])[*:2]; Hexanoyl(6-NMe3+) = C[N+](C)(C)CCCCCC(=O)*; C18 diacid = O=C(O)CCCCCCCCCCCCCCCCC(=O)*; γGlu = O=C(O)[C@H](CCC(=O)[*:2])N[*:1]; 2Nal = N[C@@H](Cc1ccc2ccccc2c1)C(=O)O; AEF = NCCOc1ccc(C[C@H](N)C(=O)O)cc1; X2 = C[N+](C)(C)C[C@@H](CC(=O)O)N*; 3Pal = N[C@@H](Cc1cccnc1)C(=O)O; Lys(Me) = CNCCCC[C@H](N)C(=O)O; aThr = C[C@H](O)[C@H](N)C(=O)O; Pen = CC(C)(S)[C@H](N)C(=O)O; Suc = O=C(CCC(=O)[*:2])[*:1]; Lauroyl = CCCCCCCCCCCC(=O)*; αMeC = C[C@](N)(CS)C(=O)O; ξR = N=C(N)NCCCC(N)C(=O)O; Thp = NC1(C(=O)O)CCOCC1; X1 = C[N+](C)(C)CCCCC*; AEEA = NCCOCCOCC(=O)O; Sar = CNCC(=O)O

Tests used:
[1] = target: T1, IL-23R (Homo sapiens, UniProt Q5VWK5); assay: IL23R Reporter Assay; type: cell-based; settings: HEK293 cells containing IL-23R, IL-12Rβ1 and STAT-inducible firefly luciferase reporter; 10 ng/mL IL-23 (EC90); 5 h
T1 construct: HEK293 cells containing IL-23R, IL-12Rβ1 and a firefly luciferase reporter gene driven by a STAT-inducible promoter (Promega); host or cells: HEK293
T1 sequence (Q5VWK5 24-629): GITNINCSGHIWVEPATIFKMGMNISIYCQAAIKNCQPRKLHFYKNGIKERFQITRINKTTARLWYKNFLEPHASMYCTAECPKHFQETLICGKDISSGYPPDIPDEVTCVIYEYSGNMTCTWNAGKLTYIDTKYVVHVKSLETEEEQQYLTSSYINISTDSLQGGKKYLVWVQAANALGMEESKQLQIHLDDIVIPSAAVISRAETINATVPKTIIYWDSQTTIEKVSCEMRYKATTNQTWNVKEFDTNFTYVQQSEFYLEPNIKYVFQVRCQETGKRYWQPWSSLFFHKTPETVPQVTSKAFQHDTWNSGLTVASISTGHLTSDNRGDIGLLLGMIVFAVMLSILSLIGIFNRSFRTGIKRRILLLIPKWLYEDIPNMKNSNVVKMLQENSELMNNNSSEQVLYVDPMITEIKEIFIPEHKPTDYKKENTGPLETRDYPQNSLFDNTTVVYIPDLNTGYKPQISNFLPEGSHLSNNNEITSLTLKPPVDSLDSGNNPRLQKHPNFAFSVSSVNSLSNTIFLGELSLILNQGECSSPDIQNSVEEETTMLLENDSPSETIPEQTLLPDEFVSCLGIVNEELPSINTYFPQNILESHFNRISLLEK
In short: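 IC50 values were fitted with a 4-parameter Hill equation to luciferase signal, scaled between IL-23-only wells (0% inhibition) and 30 μM reference inhibitor (100%). The readout was a STAT-inducible reporter in IL-23R/IL-12Rβ1 HEK293 cells, stimulated with added 10 ng/mL IL-23 (EC90) for 5 h at 37° C and developed with BioGlo.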

[2] = test system: IL-23-stimulated phosphorylated STAT3 in peripheral blood mononuclear cells (PBMCs); assay: PBMC pSTAT3 Assay; type: cell-based; settings: PBMCs from healthy donors; 30 min preincubation with peptide; IL-23 5 ng/mL for 30 min; phospho-STAT3 by MSD
In short: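 Phospho-STAT3 quantified by Meso Scale assay in lysates of PBMCs exposed to IL-23 (5 ng/mL, 30 min, 37 °C) after 30 min peptide pretreatment. Cells were cryopreserved donor PBMCs activated 4 days with anti-CD3 plus IL-1β (100 ng/mL) and starved ~4 h; IC50 reported.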

SMILES: CC(=O)NCCCC[C@@H]1NC(=O)[C@H](Cc2c[nH]c3c(C)cccc23)NC(=O)[C@H]([C@@H](C)O)NC(=O)[C@H](CC(N)=O)NC(=O)[C@@H](NC(=O)O)CCCC[C@@H](C(=O)N[C@@H](Cc2ccc(OCCN)cc2)C(=O)N[C@@H](Cc2ccc3ccccc3c2)C(=O)NC2(C(=O)N[C@@H](CCC(=O)O)C(=O)N[C@@H](CC(N)=O)C(=O)N[C@@H](Cc3cccnc3)C(=O)N(C)CC(=O)C[C@@H](CCCCNC(=O)COCCOCCNC(=O)COCCOCCNC(=O)CC[C@H](NC(=O)CCCCCCCCCCCCCCCC(=O)O)C(=O)O)C(=O)NCCOCCOCC[N+](C)(C)C)CCOCC2)NC1=O [compound 150, MeCO-Pen(3)-N-T-7MeW-K(Ac)-Pen(3)-AEF-2Nal-THP-E-N-3Pya-Sar-K(PEG2PEG2gEC18OH)-CONH(PEG3a)]
- IC50 [1]: ≥ 500 nM
- IC50 [2]: ≥ 5 nM

SMILES: CC(=O)NCCCC[C@@H]1NC(=O)[C@H](Cc2c[nH]c3c(C)cccc23)NC(=O)[C@H]([C@@H](C)O)NC(=O)[C@H](CCCCNC(=O)COCCOCCNC(=O)COCCOCCNC(=O)CC[C@H](NC(=O)CCCCCCCCCCCCCCCCC(=O)O)C(=O)O)NC(=O)[C@@H](NC(C)=O)C(C)(C)SSC(C)(C)[C@@H](C(=O)N[C@@H](Cc2ccc(OCCN)cc2)C(=O)N[C@@H](Cc2ccc3ccccc3c2)C(=O)NC2(C(=O)N[C@@H](CCCCNC(=O)CCC(=O)N[C@H](CC(=O)O)C[N+](C)(C)C)C(=O)N[C@@H](CC(N)=O)C(=O)N[C@@H](Cc3cccnc3)C(=O)N(C)CC(N)=O)CCOCC2)NC1=O [compound 15, MeCO-r-Pen(3)-N-T-7MeW-K(PEG2PEG2gEC18OH)-Pen(3)-AEF-2Nal-THP-K(d)-N-3Pya-Sar-CONH2] (Ac-[Pen]K([AEEA-AEEA-γGlu-C18 diacid])T[Trp(7-Me)]K(Ac)[Pen][AEF][2Nal][Thp]K([Suc-X2])N[3Pal][Sar]-NH2; disulfide 1-6)
- IC50 [1]: 50 to 500 nM
- IC50 [2]: 0.5 to 5 nM

SMILES: CC(=O)N(C)CCCC[C@@H]1NC(=O)[C@H](Cc2c[nH]c3c(C)cccc23)NC(=O)[C@H]([C@@H](C)O)NC(=O)[C@H](CC(=O)N(C)C)NC(=O)[C@@H](NC(=O)[C@@H](CCCCCC(=O)COCCOCCNC(=O)COCCOCCNC(=O)CC[C@H](NC(=O)CCCCCCCCCCCCCCCCC(=O)O)C(=O)O)CC(=O)CCOCCOCC[N+](C)(C)C)C(C)(C)SSC(C)(C)[C@@H](C(=O)N[C@@H](Cc2ccc(OCCCCC[N+](C)(C)C)cc2)C(=O)N[C@@H](Cc2ccc3ccccc3c2)C(=O)NC2(C(=O)N[C@@H](CCCCN(C)C(C)=O)C(=O)N[C@@H](CC(N)=O)C(=O)N[C@@H](Cc3cccnc3)C(=O)N(C)CC(=O)N(C)C)CCOCC2)NC1=O [compound 131, cPEG3aCO-k(PEG2PEG2gEC18OH)-Pen(3)-N(N(Me)2)-T-7MeW-K(NMeAc)-Pen(3)-TMAPF-2Nal-THP-K(NMeAc)-N-3Pya-Sar-CON(Me)2] (X36-[Pen]D(NMe2)T[Trp(7-Me)][Lys(Me)](Ac)[Pen]Y(X1)[2Nal][Thp][Lys(Me)](Ac)N[3Pal][Sar]-NMe2; disulfide 1-6)
- IC50 [1]: < 50 nM
- IC50 [2]: < 0.5 nM

SMILES: CCCCCCCCCCCC(=O)N[C@@H](CCC(=O)NCCOCCOCC(=O)NCCOCCOCC(=O)NC(CCCNC(=N)N)C(=O)N[C@H]1CCSC[C@@](C)(C(=O)N[C@@H](Cc2ccc(OCCN)cc2)C(=O)N[C@@H](Cc2ccc3ccccc3c2)C(=O)NC2(C(=O)N[C@@H](CCC(=O)O)C(=O)N[C@@H](CC(N)=O)C(=O)N[C@@H](Cc3cccnc3)C(=O)N(C)CC(N)=O)CCOCC2)NC(=O)[C@H](CCCCNC(C)=O)NC(=O)[C@H](Cc2c[nH]c3ccccc23)NC(=O)[C@H]([C@H](C)O)NC(=O)[C@H](CC(N)=O)NC1=O)C(=O)O (stereo partly drawn) [compound 5, C12gEPEG2PEG2CO-r-Abu(1)-N-T-W-K(Ac)-aMeC(1)-AEF-2Nal-THP-E-N-3Pya-Sar-CONH2] ({Lauroyl-γGlu-AEEA-AEEA}-[ξR][Abu(4-yl)]N[aThr]WK(Ac)[αMeC][AEF][2Nal][Thp]EN[3Pal][Sar]-NH2; thioether 2-7)
- IC50 [1]: < 50 nM
- IC50 [2]: 0.5 to 5 nM

SMILES: CC(=O)N(C)CCCC[C@@H]1NC(=O)[C@H](Cc2c[nH]c3c(C)cccc23)NC(=O)[C@H]([C@@H](C)O)NC(=O)[C@H](CC(=O)N(C)C)NC(=O)[C@@H](NC(=O)CCOCCOCC[N+](C)(C)C)C(C)(C)SSC(C)(C)[C@@H](C(=O)N[C@@H](Cc2ccc(OCCOCCOCC[N+](C)(C)C)cc2)C(=O)N[C@@H](Cc2ccc3ccccc3c2)C(=O)NC2(C(=O)N[C@@H](CCCCNC(=O)COCCOCCNC(=O)COCCOCCNC(=O)CC[C@H](NC(=O)CCCCCCCCCCCCCCCCC(=O)O)C(=O)O)C(=O)N[C@@H](CC(N)=O)C(=O)N[C@@H](Cc3cccnc3)C(=O)N(C)CC(=O)N(C)C)CCOCC2)NC1=O [compound 156, cPEG3aCO-Pen(3)-N(N(Me)2)-T-7MeW-K(NMeAc)-Pen(3)-APEG3F-2Nal-THP-K(PEG2PEG2gEC18OH)-N-3Pya-Sar-CON(Me)2] ({Me3N+(CH2)2O(CH2)2O(CH2)2CO}-[Pen]D(NMe2)T[Trp(7-Me)][Lys(Me)](Ac)[Pen]Y(CH2CH2OCH2CH2OCH2CH2NMe3+)[2Nal][Thp]K([AEEA-AEEA-γGlu-C18 diacid])N[3Pal][Sar]-NMe2; disulfide 1-6)
- IC50 [1]: 50 to 500 nM
- IC50 [2]: < 0.5 nM

SMILES: CC(=O)NCCCC[C@@H]1NC(=O)[C@H](Cc2c[nH]c3c(C)cccc23)NC(=O)[C@H]([C@@H](C)O)NC(=O)[C@H](CC(N)=O)NC(=O)[C@@H](NC(=O)COCCOCCNC(=O)COCCOCCNC(=O)CC[C@H](NC(=O)CCCCCCCCCCCCCCCCC(=O)O)C(=O)O)C(C)(C)SSC(C)(C)[C@@H](C(=O)N[C@@H](Cc2ccc(OCCN)cc2)C(=O)N[C@@H](Cc2ccc3ccccc3c2)C(=O)NC2(C(=O)N[C@@H](CCC(=O)O)C(=O)N[C@@H](CC(N)=O)C(=O)N[C@@H](Cc3cccnc3)C(=O)N(C)CC(N)=O)CCOCC2)NC1=O [compound 61, HOC18gEPEG2PEG2CO-Pen(3)-N-T-7MeW-K(Ac)-Pen(3)-AEF-2Nal-THP-E-N-3Pya-Sar-CONH2]
- IC50 [1]: < 50 nM
- IC50 [2]: < 0.5 nM

SMILES: CC(=O)NCCCC[C@@H]1NC(=O)[C@H](Cc2c[nH]c3c(C)cccc23)NC(=O)[C@H]([C@@H](C)O)NC(=O)[C@H](CC(N)=O)NC(=O)[C@@H](NC(=O)[C@@H](CCCNC(=N)N)NC(C)=O)C(C)(C)SSC(C)(C)[C@@H](C(=O)N[C@@H](Cc2ccc(OCCNC(=O)COCCOCCNC(=O)COCCOCCNC(=O)CC[C@H](NC(=O)CCCCCCCCCCCCCCCCC(=O)O)C(=O)O)cc2)C(=O)N[C@@H](Cc2ccc3ccccc3c2)C(=O)NC2(C(=O)N[C@@H](CCCCNC(=O)CCC(=O)N[C@H](CC(=O)O)C[N+](C)(C)C)C(=O)N[C@@H](CC(N)=O)C(=O)N[C@@H](Cc3cccnc3)C(=O)N(C)CC(N)=O)CCOCC2)NC1=O [compound 9, MeCO-r-Pen(3)-N-T-7MeW-K(Ac)-Pen(3)-AEF(PEG2PEG2gEC18OH)-2Nal-THP-K(d)-N-3Pya-Sar-CONH2] (Ac-[dR][Pen]NT[Trp(7-Me)]K(Ac)[Pen][AEF]([AEEA-AEEA-γGlu-C18 diacid])[2Nal][Thp]K([Suc-X2])N[3Pal][Sar]-NH2; disulfide 2-7)
- IC50 [1]: < 50 nM
- IC50 [2]: < 0.5 nM

SMILES: Cc1cccc2c(C[C@@H]3NC(=O)[C@H]([C@@H](C)O)NC(=O)[C@H](CC(N)=O)NC(=O)[C@@H](NC(=O)[C@@H](CCCNC(=N)N)NC(=O)CCCCC[N+](C)(C)C)C(C)(C)SSC(C)(C)[C@@H](C(=O)N[C@@H](Cc4ccc(OCCN)cc4)C(=O)N[C@@H](Cc4ccc5ccccc5c4)C(=O)NC4(C(=O)N[C@@H](CCC(=O)O)C(=O)N[C@@H](CC(N)=O)C(=O)N[C@@H](Cc5cccnc5)C(=O)N(C)CC(N)=O)CCOCC4)NC(=O)[C@H](CCCCNC(=O)COCCOCCNC(=O)COCCOCCNC(=O)CC[C@H](NCCCCCCCCCCCCCCCCCC(=O)O)C(=O)O)NC3=O)c[nH]c12 [compound 71, 5cpaCO-r-Pen(3)-N-T-7MeW-K(PEG2PEG2C18OH)-Pen(3)-AEF-2Nal-THP-E-N-3Pya-Sar-CONH2] ({Hexanoyl(6-NMe3+)}-[dR][Pen]NT[Trp(7-Me)]K([AEEA-AEEA-X24])[Pen][AEF][2Nal][Thp]EN[3Pal][Sar]-NH2; disulfide 2-7)
- IC50 [1]: 50 to 500 nM
- IC50 [2]: < 0.5 nM
